From the NIST ThermoML archive (doi:10.1021/acs.jced.7b00466)
“And” between values parts separate entries of the source, which are not always exact repeats. Equal values may be shown once.

Experiment: an = ratio of the nth substance listed
Conditions: for viscosity / speed of sound / mass density: 102 kPa, Liquid; for viscosity: Concentric cylinders viscometry; for speed of sound: Frequency=3 MHz, Sing-around technique in a fixed-path interferometer; for mass density: Vibrating tube method; for surface tension liquid-gas: 294.5 K, Pendant drop shape

CCCCC1CCCCC1 [butylcyclohexane] + CCCCCCCCCCCC
Conditions	mass density	speed of sound	viscosity
293.15 K, a2 = 0.3332	783.9 kg/m3	1317.5 m/s and 1317.3 m/s	1.34 mPa·s
293.15 K, a2 = 1	770.6 kg/m3	1309 m/s and 1308.8 m/s	1.38 mPa·s
293.15 K, a2 = 2.995	759 kg/m3	1302.4 m/s	1.44 mPa·s
293.15 K, a2 = 3.001	759 kg/m3	1302.6 m/s	1.42 mPa·s
303.15 K, a2 = 0.3332	776.5 kg/m3	1278.1 m/s and 1278.4 m/s	1.13 mPa·s
303.15 K, a2 = 1	763.3 kg/m3	1270.4 m/s and 1270.1 m/s	1.17 mPa·s
303.15 K, a2 = 2.995	751.7 kg/m3	1264 m/s	1.22 mPa·s
303.15 K, a2 = 3.001	751.7 kg/m3	1264.3 m/s	1.2 mPa·s
313.15 K, a2 = 0.3332	769.1 kg/m3	1239.7 m/s and 1239.9 m/s	0.972 mPa·s and 0.974 mPa·s
313.15 K, a2 = 1	755.9 kg/m3	1232.3 m/s and 1232 m/s	1.01 mPa·s and 1 mPa·s
313.15 K, a2 = 2.995	744.4 kg/m3	1226.2 m/s	1.04 mPa·s
313.15 K, a2 = 3.001	744.4 kg/m3	1226.5 m/s	1.02 mPa·s
323.15 K, a2 = 0.3332	761.6 kg/m3	1201.8 m/s and 1202 m/s	0.845 mPa·s and 0.846 mPa·s
323.15 K, a2 = 1	748.5 kg/m3	1194.8 m/s and 1194.6 m/s	0.88 mPa·s and 0.865 mPa·s
323.15 K, a2 = 2.995	737.1 kg/m3	1189 m/s	0.896 mPa·s
323.15 K, a2 = 3.001	737.1 kg/m3	1189.3 m/s	0.883 mPa·s
333.15 K, a2 = 0.3332	754.1 kg/m3	1164.8 m/s and 1164.7 m/s	0.743 mPa·s and 0.741 mPa·s
333.15 K, a2 = 1	741.1 kg/m3	1158.1 m/s and 1157.9 m/s	0.774 mPa·s and 0.757 mPa·s
333.15 K, a2 = 2.995	729.7 kg/m3	1152.5 m/s	0.788 mPa·s
333.15 K, a2 = 3.001	729.7 kg/m3	1152.9 m/s	0.77 mPa·s
343.15 K, a2 = 0.3332	746.5 kg/m3	–	0.656 mPa·s
343.15 K, a2 = 1	733.6 kg/m3 and 733.7 kg/m3	–	0.686 mPa·s and 0.668 mPa·s
343.15 K, a2 = 2.995	722.5 kg/m3	–	0.699 mPa·s
343.15 K, a2 = 3.001	722.2 kg/m3	–	0.678 mPa·s

Conditions	surface tension liquid-gas [mN/m]
a2 = 0.3332	26.1
a2 = 0.3335	26.1
a2 = 0.9998	25.8
a2 = 1	25.6
a2 = 2.997	25.4
a2 = 3.001	25.3

CCCCC1CCCCC1 [butylcyclohexane] + CCCCCCCCCCCCCCCC
Conditions	mass density [kg/m3]	speed of sound [m/s]	viscosity [mPa·s]
293.15 K, a2 = 0.25	791.29	1334.4	1.68
293.15 K, a2 = 0.3333	789.5	1335.5	1.78
293.15 K, a2 = 0.3335	789.61	1335.2	1.78
293.15 K, a2 = 0.6666	785.19	–	2.08
293.15 K, a2 = 0.6667	–	1339.5	–
293.15 K, a2 = 0.9992	782.68	1342.9	2.29
293.15 K, a2 = 0.9997	782.68	1342.9	2.29
293.15 K, a2 = 1.5	780.35	1345.6	2.5
293.15 K, a2 = 2.997	777.44	1349.7	2.84
293.15 K, a2 = 3.001	777.44	1350	2.84
293.15 K, a2 = 3.998	776.54	1350.8	2.96
303.15 K, a2 = 0.25	784.02	1295.9	1.4
303.15 K, a2 = 0.3333	782.27	1297.1	1.5
303.15 K, a2 = 0.3335	782.37	1296.8	1.49
303.15 K, a2 = 0.6666	778.07	–	1.71
303.15 K, a2 = 0.6667	–	1301.7	–
303.15 K, a2 = 0.9992	775.6	1305.2	1.87
303.15 K, a2 = 0.9997	775.6	1305.2	1.87
303.15 K, a2 = 1.5	773.33	1308.2	2.04
303.15 K, a2 = 2.997	770.54	1312.4	2.29
303.15 K, a2 = 3.001	770.45	1312.7	2.29
303.15 K, a2 = 3.998	769.57	1313.6	2.37
313.15 K, a2 = 0.25	776.71	1257.8	1.19
313.15 K, a2 = 0.3333	775.01	1259.3	1.26
313.15 K, a2 = 0.3335	775.12	1259.1	1.26
313.15 K, a2 = 0.6666	770.92	–	1.44
313.15 K, a2 = 0.6667	–	1264.4	–
313.15 K, a2 = 0.9992	768.51	1268.2	1.56
313.15 K, a2 = 0.9997	768.51	1268.2	1.56
313.15 K, a2 = 1.5	766.29	1271.3	1.69
313.15 K, a2 = 2.997	763.47	1275.9	1.88
313.15 K, a2 = 3.001	763.47	1276	1.88
313.15 K, a2 = 3.998	762.61	1277	1.95
323.15 K, a2 = 0.25	769.38	1220.2	1.03
323.15 K, a2 = 0.3333	767.73	1222.1	1.08
323.15 K, a2 = 0.3335	767.83	1222	1.08
323.15 K, a2 = 0.6667	763.75	1227.5	1.23
323.15 K, a2 = 0.9992	761.41	1231.8	1.33
323.15 K, a2 = 0.9997	761.41	1231.8	1.33
323.15 K, a2 = 1.5	759.24	1234.9	1.42
323.15 K, a2 = 2.997	756.48	1239.9	1.58
323.15 K, a2 = 3.001	756.48	1240.1	1.58
323.15 K, a2 = 3.998	755.63	1240.9	1.62
333.15 K, a2 = 0.25	762.02	1183.2	0.898
333.15 K, a2 = 0.3333	760.42	1185.7	0.942
333.15 K, a2 = 0.3335	760.52	1185.6	0.942
333.15 K, a2 = 0.6667	756.56	1191.2	1.06
333.15 K, a2 = 0.9992	754.28	1196.2	1.14
333.15 K, a2 = 0.9997	754.28	1196.2	1.14
333.15 K, a2 = 1.5	752.17	1199.1	1.22
333.15 K, a2 = 2.997	749.48	1204.7	1.34
333.15 K, a2 = 3.001	749.49	1205	1.34
333.15 K, a2 = 3.998	748.65	1205.4	1.38
343.15 K, a2 = 0.25	754.6	–	0.789
343.15 K, a2 = 0.3333	753.1	–	0.827
343.15 K, a2 = 0.3335	753.2	–	0.821
343.15 K, a2 = 0.6667	749.4	–	0.926
343.15 K, a2 = 0.9992	747.2	–	0.991
343.15 K, a2 = 0.9997	747.2	–	0.991
343.15 K, a2 = 1.5	745.1	–	1.06
343.15 K, a2 = 2.997	742.5	–	1.16
343.15 K, a2 = 3.001	742.5	–	1.16
343.15 K, a2 = 3.998	741.4	–	1.19

Conditions	surface tension liquid-gas [mN/m]
a2 = 0.25	26.6
a2 = 0.3333	26.7
a2 = 0.3335	26.9
a2 = 0.6667	26.9
a2 = 0.9992	26.9
a2 = 0.9997	26.9
a2 = 1.5	26.9
a2 = 2.997	27.1
a2 = 3.001	27
a2 = 3.998	27
